Read-outs that look alike come from different tables or passages of the source.

Four compounds from patent US12643887B2, “Heterocyclic derivatives with cardiomyocyte proliferation activity for treatment of heart diseases” (Tongji University, priority 2019, dated 2026) can be followed below.

One assay deals with T1, human CK2a2 (CSNK2a2) (Homo sapiens, UniProt P19784).
T1 construct: Recombinant human CK2a2 (CSNK2a2) (full length); GST (N); purchased SignalChem C71-10G; host or cells: Sf9 insect cells
T1 sequence (P19784 whole entry): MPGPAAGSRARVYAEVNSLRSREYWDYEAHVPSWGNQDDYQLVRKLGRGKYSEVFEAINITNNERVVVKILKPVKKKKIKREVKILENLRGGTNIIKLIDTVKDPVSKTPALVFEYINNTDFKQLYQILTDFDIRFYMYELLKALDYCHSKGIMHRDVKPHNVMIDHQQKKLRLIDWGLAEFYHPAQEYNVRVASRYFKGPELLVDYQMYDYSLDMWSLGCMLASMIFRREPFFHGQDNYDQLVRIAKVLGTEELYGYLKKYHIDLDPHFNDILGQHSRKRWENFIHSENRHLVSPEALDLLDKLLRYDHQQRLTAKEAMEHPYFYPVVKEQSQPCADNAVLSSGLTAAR
Put plainly: CK2a2 (CSNK2a2) enzyme assay (ADP-Glo). The format is biochemical. The procedure: 8. CK2a2 (CSNK2a2) Enzyme Assay
The ability of compounds to inhibit human CK2a2 (CSNK2a2) kinase activities was determined using a commercially available ADP-Glo™ Kinase Assay kit (Promega, Cat #V9102) according to the manufacturer's protocol.
Recombinant human CK2a2 (CSNK2a2) (full length) (expressed in Sf9 insect cells with an N-terminal GST tag) was purchased from SignalChem (Cat #C71-10G). CK2 substrate (sequence: […]) was purchased from SignalChem (Cat #C08-58). This assay, run in a 384-well plate format, is a generic method for measuring kinase activities using an ADP-Glo Kinase Assay Kit. The basic assay procedure involves two steps: (1) Enzymatic step: inhibitors are incubated with the kinase and then ATP (included in the ADP-Glo Kinase Assay Kit) and the MBP protein are added to start the enzymatic reaction; (2) Detection step: after the kinase reaction, first ADP-Glo™ Reagent is added to terminate the kinase reaction and deplete the remaining ATP. Second, the Kinase Detection Reagent is added to simultaneously convert ADP to ATP and allow the newly synthesized ATP to be measured using a luciferase/luciferin reaction. The light generated is measured using a luminometer.
Briefly, CK2a2 (CSNK2a2) (7 nM) in the enzymatic buffer solutions (40 mM Tris, pH 7.5, 20 mM MgCl2, 0.1 mg/ml BSA, 50 μM DTT) were mixed with various concentrations of inhibitors (dissolved in 100% DMSO). These solutions were incubated for 30 minutes at 25° C., and subsequently a mixture of substrate peptide and ATP was added with the final peptide and ATP concentrations at 0.04 mg/ml and 15 μM, respectively. The final reaction mixture of enzyme-substrate-ATP-compound was incubated for 90 minutes at 25° C.
(§1) Afterwards ADP-Glo™ Reagent was added and the mixture was incubated at 25° C. for 60 minutes. Then Kinase Detection Reagent was added, and the final mixture was incubated at 25° C. for 60 minutes. The luminescence signal of the final solution was measured on an Envision instrument (PerkinElmer). The percent (%) inhibition at each concentration of a compound is calculated relative to the luminescence signal in the Max and Min control wells contained within each assay plate. […] The concentrations and percent inhibition values for a test compound are plotted and the concentration of the compound required to achieve 50% inhibition (IC50) is determined with a four-parameter logistic dose response equation.

The next assay has as its target T2, human CIT (Homo sapiens, UniProt O14578).
T2 construct: Recombinant human CIT (1-499); GST (N); purchased SignalChem C52-11G; host or cells: Sf9 insect cells
Put plainly: CIT enzyme assay (ADP-Glo). The format is biochemical. As for the experimental part: The ability of compounds to inhibit human CIT kinase activities was determined using a commercially available ADP-Glo™ Kinase Assay kit (Promega, Cat #V9102) according to the manufacturer's protocol.
Recombinant human CIT (1-499) (expressed in Sf9 insect cells with an N-terminal GST tag) was purchased from SignalChem (Cat #C52-11G). Recombinant full length human MBP (expressed in E. Coli cells with an N-terminal GST tag) was purchased from SignalChem (Cat #M42-54G). This assay, run in a 384-well plate format, is a generic method for measuring kinase activities using an ADP-Glo Kinase Assay Kit. The basic assay procedure involves two steps: (1) Enzymatic step: inhibitors are incubated with the kinase and then ATP (included in the ADP-Glo Kinase Assay Kit) and the MBP protein are added to start the enzymatic reaction; (2) Detection step: after the kinase reaction, first ADP-Glo™ Reagent is added to terminate the kinase reaction and deplete the remaining ATP. Second, the Kinase Detection Reagent is added to simultaneously convert ADP to ATP and allow the newly synthesized ATP to be measured using a luciferase/luciferin reaction. The light generated is measured using a luminometer.
Briefly, CIT (20 nM) in the enzymatic buffer solutions (40 mM Tris, pH 7.5, 20 mM MgCl2, 0.1 mg/ml BSA, 50 μM DTT) were mixed with various concentrations of inhibitors (dissolved in 100% DMSO). These solutions were incubated for 30 minutes at 25° C., and subsequently a mixture of substrate peptide and ATP was added with the final peptide and ATP concentrations at 0.05 mg/ml and 5 μM, respectively. The final reaction mixture of enzyme-substrate-ATP-compound was incubated for 90 minutes at 25° C.
as §1

The mark [1] stands for this setting: ADP-Glo, ATP 15 μM, read-out: CK2 alpha 2 IC50.
Setting [2] is: ADP-Glo, ATP 5 μM, read-out: CIT IC50.

T2 sequence (O14578 1-499): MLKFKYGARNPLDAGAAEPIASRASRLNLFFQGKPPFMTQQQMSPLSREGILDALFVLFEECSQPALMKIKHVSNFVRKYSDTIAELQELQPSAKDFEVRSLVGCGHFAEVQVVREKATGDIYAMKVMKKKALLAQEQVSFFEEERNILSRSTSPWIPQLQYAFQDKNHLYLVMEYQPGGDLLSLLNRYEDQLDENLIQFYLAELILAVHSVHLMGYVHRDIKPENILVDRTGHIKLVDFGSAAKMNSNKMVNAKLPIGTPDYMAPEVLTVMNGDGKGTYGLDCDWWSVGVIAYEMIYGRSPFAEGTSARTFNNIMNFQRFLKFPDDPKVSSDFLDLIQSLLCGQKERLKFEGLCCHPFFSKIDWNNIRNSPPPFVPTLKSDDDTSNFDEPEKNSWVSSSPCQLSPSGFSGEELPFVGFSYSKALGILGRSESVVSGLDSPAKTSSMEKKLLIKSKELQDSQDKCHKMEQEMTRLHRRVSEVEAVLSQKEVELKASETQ

Take `CCN(C1=N/C(=C\c2ccc3c(c2)OCO3)C(=O)N1)c1ccccc1` [Example 4, (Z)-5-(benzo[d][1,3]dioxol-5-ylmethylene)-2-(ethyl(phenyl)amino)-3,5-dihydro-4H-imidazol-4-one]: the IC50 was 0.1 to 1 µM at human CK2a2 (CSNK2a2) (setting [1]) and > 10 µM at human CIT (setting [2]).
As to `CC(=O)N(C1=N/C(=C\c2ccc3c(c2)OCO3)C(=O)N1)c1ccccc1` [Example 5, (Z)—N-(4-(benzo[d][1,3]dioxol-5-ylmethylene)-5-oxo-4,5-dihydro-1H-imidazol-2-yl)-N-phenylacetamide], the results for the IC50 on human CK2a2 (CSNK2a2) and against human CIT were < 0.1 µM and > 10 µM, respectively.
Turning to `Cc1nc2ccc(NC3=N/C(=C\c4ccc5ncsc5c4)C(=O)N3)cc2s1` [Example 90, (Z)-5-(benzo[d]thiazol-6-ylmethylene)-2-((2-methylbenzo[d]thiazol-6-yl)amino)-3,5-dihydro-4H-imidazol-4-one], the figures for the IC50 at human CK2a2 (CSNK2a2) (setting [1]) and at human CIT (setting [2]) were < 0.1 µM and > 10 µM, respectively.
`Nc1ccc(NC2=N/C(=C\c3ccc4ncsc4c3)C(=O)N2)cc1` [Example 98, (Z)-2-((4-aminophenyl)amino)-5-(benzo[d]thiazol-6-ylmethylene)-3,5-dihydro-4H-imidazol-4-one]: the IC50 was < 0.1 µM on human CK2a2 (CSNK2a2) (setting [1]) and 0.1 to 1 µM on human CIT (setting [2]).
